# Experimental data: paper PMC7367283, “A PIP2 substitute mediates voltage sensor-pore coupling in KCNQ activation” (Communications Biology, 2020)
# Values joined by “and” are separate entries in the source; they are usually repeats but may differ in a detail not shown here. Equal entries are not always repeated.
# Tested on: guinea pig ventricular myocytes
# Assay: Action potential recording in ventricular myocytes with moxifloxacin-prolonged (LQT) action potentials
# Assay type: cell-based
# Parameters: actional potential duration (APD), Fig. 7h: unit not given here
# Settings: for actional potential duration (APD), Fig. 7h: Moxi-Group, individual cells
# Procedure: Fig. 7 Effects of CP1 on IKs and action potentials in cardiomyocytes. a IKs currents in guinea pig ventricular myocytes in the absence and presence of 30 µM CP1 in the whole-cell patch-clamp configuration. Holding potential: −40 mV; testing potentials: −20 to +60 mV with 10-mV increment; returning potential: −20 mV. […] Guinea pig ventricular myocytes were first perfused with 10 µM CP1 and 10 µM chromanol. After APD reached steady state, 10 µM CP1 was constitutively perfused alone. Last, CP1 was washed out for near-full reversal of APD shortening. g Effects of 0.2 µM CP1 on LQT action potentials. To mimic the LQT, 100 µM moxifloxacin was applied 2 h before the treatment of CP1. h Change of action potential duration after application of different [CP1]s (n = 5–7). Tukey–Kramer ANOVA test was used to compare control cells in different CP1 concentration, # is significant at P < 0.05. Unpaired two-tailed Student t tests were used to compare control and moxifloxacin cells at different CP1 concentration: * is significant at P < 0.05.
# In ventricular myocytes, the duration and the morphology of action potentials are determined by various ion channels. Mutations in many of these channels and drugs that modify channel functions, such as an increase in inward Na^+ currents or decrease in outward K^+ currents, may lead to a prolonged action potential duration, which results in an inherited or acquired long QT syndrome that predisposes afflicted patients to cardiac arrhythmia. An enhancement of the outward IKs current may be able to counter these mutations or drug effects, and restore the action potential duration to more normal values. […] Next, we used an IKr blocker (Moxifloxacin, Moxi) to prolong action potentials and then applied various concentrations of CP1.
# The use of guinea pigs was approved by the Stony Brook University Institutional Animal Care and Use Committee. Single ventricular myocytes were acutely enzymatically isolated from guinea pig heart as previously described. Guinea pigs, weighing 300–500 g, were sacrificed by peritoneal injection of sodium pentobarbitone (1 ml, 390 mg/ml). The isolated cells were stored in KB solution containing (in mM) 83 KCl, 30 K2HPO4, 5 MgSO4, 5 Na pyruvate, 5 β-OH-butyric acid, 20 creatine, 20 taurine, 10 glucose, and 0.5 EGTA, pH 7.2.
# Action potentials were recorded with whole-cell patch-clamp recording techniques. Current-clamp configuration was used. Freshly isolated guinea pig cardiac myocytes were placed at 1 Hz with a stimulus of 180-pA amplitude and 10-mS duration. The APD was determined at 90% repolarization. Several minutes were allowed for the APD to reach steady state before data were collected. Typical Tyrode mimic AP Solution for action potential recording was used. The bath solution is composed of (in mM) 140 NaCl, 3 KCl, 1 MgCl2, 1.8 CaCl2, 10 HEPES, and 10 Glucose, pH 7.4. The pipette solution is composed of (in mM) 115 K-aspartic acid, 35 KOH, 3 MgCl2, 10 HEPES, 11 EGTA, 5 Glucose, and 3 MgATP, pH 7.4.
smiles,measurement,setting,value
"O=S(=O)([O-])Oc1c(-c2sc3c(ccc4cccc(Cl)c43)c2OS(=O)(=O)[O-])[nH]c2ccc(Br)cc12.[Na+].[Na+] [CP1, DISODIUM 5-BROMO-2-[9-CHLORO-3-(SULFONATOOXY) NAPHTHO [1,2-B] THIEN-2-YL]-1H-INDOL-3-YL SULFATE]",action potential duration,"0.2 µM CP1, 100 µM moxifloxacin applied 2 h before",return the action potential duration back to normal
same,action potential duration,"0.6 and 6 µM CP1, moxifloxacin",reduced Moxifloxacin-induced action potential prolongation
same,"actional potential duration (APD), Fig. 7h",0.2 µM CP1,628 and 590 and 655 and 646 and 548 and 586
same,"actional potential duration (APD), Fig. 7h",0.6 µM CP1,549 and 521 and 579 and 388 and 495
same,"actional potential duration (APD), Fig. 7h",6 µM CP1,393 and 380 and 396 and 407 and 426 and 406
